From ChEMBL document CHEMBL1135272 (Bioorg Med Chem Lett, 2002)

What was measured:
[1] = system: A549; assay: Compound was tested for its ability to inhibit tumor necrosis factor alpha (TNF alpha) induced apoptosis in A549 human lung carcinoma cell line; format: functional, cell-based
[2] = system: A549; assay: Inhibition of NFkB (transcription factor) activation in A549 human lung carcinoma cell line at 20 uM; format: functional
[3] = system: A549; assay: Inhibition of NFkB (transcription factor) activation in A549 human lung carcinoma cell line; format: functional, cell-based
[4] = system: A549; assay: Compound was tested for its ability to inhibit tumor necrosis factor alpha (TNF alpha) induced apoptosis in A549 human lung carcinoma cell line; NA=Not assayed; format: functional, cell-based
[5] = system: A549; assay: (§1) Compound was tested for its ability to inhibit tumor necrosis factor alpha (TNF alpha) induced apoptosis in A549 human lung carcinoma cell line at 20 uM concentration; format: functional, cell-based
[6] = system: A549; assay: The compound was examined for its ability to block tumor necrosis factor alpha (TNF alpha) induced IL-8 production in A549 human lung carcinoma cell line using an ELISA; format: functional, cell-based
[7] = system: A549; assay: The compound was tested for its ability to inhibit tumor necrosis factor alpha (TNF alpha) induced apoptosis in A549 human lung carcinoma cell line; format: functional, cell-based
[8] = system: A549; assay: as §1; format: functional

CCCOC(=O)C1C2C(=O)CC(c3ccc(OCC)cc32)C1C(=O)OCC[Si](C)(C)C (centres undefined)
IC50 [1]: 10 µM | inhibition at 20 µM [2]: 43%

CCCOC(=O)C1C2C(=O)CC(c3ccc(O)cc32)C1C(=O)OCCC[Si](C)(C)C (centres undefined)
IC50 [3]: 40 µM | IC50 [4]: Not Active

CCCOC(=O)C1C2C(=O)CC(c3ccc(O)cc32)C1C(=O)OCC[Si](C)(C)C (centres undefined)
IC50 [5]: 3 µM | IC50 [3]: 15 µM | IC50 [6]: 14 µM

C=CCOC(=O)C1C2C(=O)CC(c3ccc(O)cc32)C1C(=O)OCC[Si](C)(C)C (centres undefined)
IC50 [3]: 21 µM | IC50 [7]: 5 µM | IC50 [6]: 21 µM

C[Si](C)(C)CCOC(=O)C1C2CC(=O)C(c3cc(O)ccc32)C1C(=O)OCCN1CCOCC1 (centres undefined)
inhibition at 20 µM [8]: 43% | inhibition at 20 µM [2]: 18%

C=CCNC(=O)C1C2C(=O)CC(c3ccc(O)cc32)C1C(=O)OCC[Si](C)(C)C (centres undefined)
inhibition at 20 µM [8]: 18% | inhibition at 20 µM [2]: 19%

CCCOC(=O)C1C2C(=O)CC(c3ccc(OCc4ccccn4)cc32)C1C(=O)OCC[Si](C)(C)C (centres undefined)
inhibition at 20 µM [8]: 47% | inhibition at 20 µM [2]: 31%

C=CCOC(=O)NC1C2C(=O)CC(c3ccc(O)cc32)C1C(=O)OCC[Si](C)(C)C (centres undefined)
IC50 [1]: 14 µM | inhibition at 20 µM [2]: 34%

CCCOC(=O)C1C2C(=O)CC(c3ccccc32)C1C(=O)OCC[Si](C)(C)C (centres undefined)
inhibition at 20 µM [8]: 38% | IC50 [3]: 45 µM

C=CCNC(=O)NC1C2C(=O)CC(c3ccc(O)cc32)C1C(=O)OCC[Si](C)(C)C (centres undefined)
inhibition at 20 µM [8]: 23% | inhibition at 20 µM [2]: 28%

CCCOC(=O)C1C2C(=O)CC(c3ccc(OCC(=O)O)cc32)C1C(=O)OCC[Si](C)(C)C (centres undefined)
inhibition at 20 µM [8]: 13% | inhibition at 20 µM [2]: 3%

CCCOC(=O)C1C2C(=O)CC(c3ccc(O)cc32)C1C(=O)OCCC(C)(C)C (centres undefined)
IC50 [3]: 41 µM | IC50 [4]: Not Active

CCCOC(=O)C1C2C(=O)CC(c3ccc(OCCc4ccccn4)cc32)C1C(=O)OCC[Si](C)(C)C (centres undefined)
IC50 [3]: 27 µM | IC50 [1]: 4 µM

C[Si](C)(C)CCOC(=O)C1C2CC(=O)C(c3cc(O)ccc32)C1NC(=O)OCc1ccc(-c2ccccc2)cc1 (centres undefined)
inhibition at 20 µM [8]: 0% | inhibition at 20 µM [2]: 27%

C[Si](C)(C)CCOC(=O)C1C2CC(=O)C(c3cc(O)ccc32)C1NC(=O)NCc1cccnc1 (centres undefined)
inhibition at 20 µM [8]: 11% | inhibition at 20 µM [2]: 30%

C[Si](C)(C)CCOC(=O)C1C2CC(=O)C(c3cc(O)ccc32)C1C(=O)OCc1cccc(F)c1 (centres undefined)
inhibition at 20 µM [2]: 13% | IC50 [7]: 12 µM
